What was measured:
CDK9/Cyclin T1 = molecular target: T1, CDK9/Cyclin T1 (Homo sapiens, UniProt P50750); experiment: CDK9 enzyme protocol (LANCE ULight TR-FRET kinase assay); format: biochemical; settings: 4 nM CDK9/Cyclin T1, 1000 μM ATP, 100 nM U-light MBP peptide, 30 minutes
T1 construct: purchased Carna Biosciences 04-110
Procedure: CDK9 enzyme activities were measured using LANCE ULight TR-FRET kinase assay reagents (PerkinElmer, Waltham, Mass.). Compounds were directly added in 100% DMSO to white low volume assay plates (Perkin Elmer Proxiplate 6008289) using a Labcyte Echo acoustic dispenser. Assay reagents in serine/threonine kinase assay buffer containing 20 mM HEPES, 10 mM MgCl2, 100 mM Na3VO4, and 0.0075% Triton X-100. were added for final reaction mixture concentrations of 1000 μM ATP, 100 nM U-light MBP peptide (Perkin Elmer TRF0109M) and reaction initiated with 4 nM CDK9/Cyclin T1 (Carna Biosciences 04-110). The kinase reaction was carried out for 30 minutes before addition of stopping buffer to a final of 20 mM EDTA and 0.5 nM of LANCE Ultra Europium anti-phospho-MBP antibody (PerkinElmer TRF0201M) in LANCE detection buffer (PerkinElmer CR97-100). The reaction was equilibrated for 1 hour and the signal read in the Perkin Elmer Envision in TR-FRET mode (excitation at 320 nm and emission at 615/665 nm).

A431 cells = experiment: Cell viability assay in A431 cells (Cell TiterGlo); format: cell-based; settings: Homo sapiens, A-431, 24 hours at 37° C.
Procedure: (§1) Cell viability assays were performed using A431 or H929 cells. A431 cells were seeded in 96-well plates at 10,000 cells/well, and after overnight incubation, treated with compounds at 2-times the final concentration to result in a dose response of 3-fold dilutions from 10 μM to 0.0005 μM (50 μL/well, 0.1% final DMSO concentration). H929 cells were seeded in 96-well plates at 10,000 cells/well and treated immediately with compounds as described above. After 24 hours at 37° C., cell viability was measured using Cell TiterGlo reagent (Promega) with a luminescence reader. Alternately, cell viability assays were performed in 384-well format. A431 cells were seeded in 384-well plates at 2500 cells/well and, after overnight incubation, treated with compounds in a dose response of 3-fold dilutions from 10 μM to 0.0005 μM (25 nL/well, 0.1% final DMSO concentration). For the H929 viability assay, 25 nL/well of the compounds was dispensed into 384-well plates in a dose response as described above and cells were immediately seeded in 384-well plates at 2500 cells/well. After 24 hours at 37° C., cell viability was measured using Cell TiterGlo reagent (Promega) with a luminescence reader.

H929 cells = experiment: Cell viability assay in H929 cells (Cell TiterGlo); format: cell-based; settings: Homo sapiens, NCI-H929, 24 hours at 37° C.
Procedure: as §1

T1 sequence (P50750 whole entry): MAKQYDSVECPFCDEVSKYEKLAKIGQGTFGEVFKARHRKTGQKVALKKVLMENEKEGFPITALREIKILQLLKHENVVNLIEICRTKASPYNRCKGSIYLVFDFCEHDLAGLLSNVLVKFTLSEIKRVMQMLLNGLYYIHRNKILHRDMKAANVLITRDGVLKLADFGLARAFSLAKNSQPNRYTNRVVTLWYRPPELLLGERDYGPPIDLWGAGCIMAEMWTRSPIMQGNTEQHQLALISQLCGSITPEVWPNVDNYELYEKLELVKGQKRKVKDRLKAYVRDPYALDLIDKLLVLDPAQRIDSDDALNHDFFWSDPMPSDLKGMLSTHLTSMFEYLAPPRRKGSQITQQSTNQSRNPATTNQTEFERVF
T1 sequence (O60563 whole entry partner): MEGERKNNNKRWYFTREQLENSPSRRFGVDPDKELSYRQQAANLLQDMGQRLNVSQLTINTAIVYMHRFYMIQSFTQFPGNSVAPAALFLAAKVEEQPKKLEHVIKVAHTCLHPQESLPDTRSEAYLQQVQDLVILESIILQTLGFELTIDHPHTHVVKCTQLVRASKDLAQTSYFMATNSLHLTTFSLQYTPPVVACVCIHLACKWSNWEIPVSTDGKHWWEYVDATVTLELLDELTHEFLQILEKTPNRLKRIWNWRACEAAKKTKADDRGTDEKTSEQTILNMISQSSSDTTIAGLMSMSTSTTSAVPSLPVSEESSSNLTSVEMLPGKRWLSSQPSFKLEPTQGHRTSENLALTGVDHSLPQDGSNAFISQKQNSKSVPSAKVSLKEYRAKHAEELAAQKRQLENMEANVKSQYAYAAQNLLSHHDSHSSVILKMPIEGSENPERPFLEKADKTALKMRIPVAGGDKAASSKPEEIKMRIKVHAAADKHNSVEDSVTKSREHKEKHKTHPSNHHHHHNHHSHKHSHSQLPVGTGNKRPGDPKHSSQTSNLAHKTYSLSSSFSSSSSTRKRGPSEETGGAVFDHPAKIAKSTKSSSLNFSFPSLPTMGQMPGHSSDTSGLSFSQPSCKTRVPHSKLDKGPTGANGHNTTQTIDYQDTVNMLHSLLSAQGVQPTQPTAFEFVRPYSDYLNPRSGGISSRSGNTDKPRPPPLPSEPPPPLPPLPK

IC50 (CDK9/Cyclin T1) [nM] | EC50 (A431 cells) [nM] | EC50 (H929 cells) [nM] | SMILES
72 | 120 |  | Fc1ccc(NCc2ccccc2)cc1-c1ncnc2[nH]c(C3CCNCC3)cc12 [Example 9, N-benzyl-4-fluoro-3-[6-(piperidin-4-yl)-7H-pyrrolo[2,3-d]pyrimidin-4-yl]aniline]
290 |  | 6700 | COc1ccc(F)cc1-c1ncnc2[nH]c(C3=CCC(C(=O)O)CC3)cc12 (centres unmarked) [Example 79, 4-[4-(5-fluoro-2-methoxyphenyl)-7H-pyrrolo[2,3-d]pyrimidin-6-yl]cyclohex-3-ene-1-carboxylic acid]
130 |  | 290 | CS(=O)(=O)N1CC=C(c2cc3c(-c4cc(NCc5ccccc5)ccc4F)ncnc3[nH]2)CC1 [Example 29, N-benzyl-4-fluoro-3-{6-[1-(methylsulfonyl)-1,2,3,6-tetrahydropyridin-4-yl]-7H-pyrrolo[2,3-d]pyrimidin-4-yl}aniline]
43 |  | 376 | COc1ccc(F)cc1-c1ncnc2[nH]c(C3=CCN(S(=O)(=O)C4CCS(=O)(=O)C4)CC3)cc12 (centres unmarked) [Example 38, 6-{1-[(1,1-dioxidotetrahydrothiophen-3-yl)sulfonyl]-1,2,3,6-tetrahydropyridin-4-yl}-4-(5-fluoro-2-methoxyphenyl)-7H-pyrrolo[2,3-d]pyrimidine]
65 |  | 1700 | COc1ccc(F)cc1-c1ncnc2[nH]c(C3=CCN(C(=O)C4CCC(=O)NC4)CC3)cc12 (centres unmarked) [Example 14, 5-({4-[4-(5-fluoro-2-methoxyphenyl)-7H-pyrrolo[2,3-d]pyrimidin-6-yl]-3,6-dihydropyridin-1(2H)-yl}carbonyl)piperidin-2-one]
750 |  | 6800 | COc1ccc(F)cc1-c1ncnc2[nH]c(C3=CCC(N[C@H](C(=O)O)C(C)C)CC3)cc12 (stereo partly drawn) [Example 78, N-{4-[4-(5-fluoro-2-methoxyphenyl)-7H-pyrrolo[2,3-d]pyrimidin-6-yl]cyclohex-3-en-1-yl}-L-valine]
160 |  | 550 | COc1ccc(F)cc1-c1ncnc2[nH]c(C3=CCN(S(=O)(=O)C(C)C)CC3)cc12 [Example 10, 4-(5-fluoro-2-methoxyphenyl)-6-[1-(propan-2-ylsulfonyl)-1,2,3,6-tetrahydropyridin-4-yl]-7H-pyrrolo[2,3-d]pyrimidine]
440 |  | 6400 | COc1ccc(F)cc1-c1ncnc2[nH]c(C3=CCC(N[C@@H](C(=O)O)C(C)C)CC3)cc12 (stereo partly drawn) [Example 84, N-{4-[4-(5-fluoro-2-methoxyphenyl)-7H-pyrrolo[2,3-d]pyrimidin-6-yl]cyclohex-3-en-1-yl}-D-valine]
260 |  | 3600 | CS(=O)(=O)N1CC=C(c2cc3c(-c4cc(NCC5CCCO5)ccc4F)ncnc3[nH]2)CC1 (centres unmarked) [Example 32, 4-fluoro-3-{6-[1-(methylsulfonyl)-1,2,3,6-tetrahydropyridin-4-yl]-7H-pyrrolo[2,3-d]pyrimidin-4-yl}-N-(tetrahydrofuran-2-ylmethyl)aniline]
69 |  | 840 | COc1ccc(F)cc1-c1ncnc2[nH]c(C3=CCN(C(=O)C4CC(=O)N4)CC3)cc12 (centres unmarked) [Example 13, 4-({4-[4-(5-fluoro-2-methoxyphenyl)-7H-pyrrolo[2,3-d]pyrimidin-6-yl]-3,6-dihydropyridin-1(2H)-yl}carbonyl)azetidin-2-one]
200 |  | 420 | CCOc1ccc(F)cc1-c1ncnc2[nH]c(C3=CCN(Cc4ccc(NC(C)=O)cc4)CC3)cc12 [Example 68, N-[4-({4-[4-(2-ethoxy-5-fluorophenyl)-7H-pyrrolo[2,3-d]pyrimidin-6-yl]-3,6-dihydropyridin-1(2H)-yl}methyl)phenyl]acetamide]
43 |  | 310 | COc1ccc(F)cc1-c1ncnc2[nH]c(C3=CCN(C(=O)C4CC4)CC3)cc12 [Example 11, cyclopropyl{4-[4-(5-fluoro-2-methoxyphenyl)-7H-pyrrolo[2,3-d]pyrimidin-6-yl]-3,6-dihydropyridin-1(2H)-yl}methanone]
290 |  | 600 | COc1ccc(F)cc1-c1ncnc2[nH]c(C3=CCC(N[C@H](C(=O)O)C4CCCCC4)CC3)cc12 (stereo partly drawn) [Example 77, (2S)-cyclohexyl({4-[4-(5-fluoro-2-methoxyphenyl)-7H-pyrrolo[2,3-d]pyrimidin-6-yl]cyclohex-3-en-1-yl}amino)acetic acid]
86 |  | 210 | COc1ccc(F)cc1-c1ncnc2[nH]c(C3=CCN(C(=O)C4CCCOC4)CC3)cc12 (centres unmarked) [Example 15, 4-[4-(5-fluoro-2-methoxyphenyl)-7H-pyrrolo[2,3-d]pyrimidin-6-yl]-3,6-dihydropyridin-1(2H)-yl(tetrahydro-2H-pyran-3-yl)methanone]
220 |  | 1000 | COc1ccc(F)cc1-c1ncnc2[nH]c(C3=CCN(Cc4ccnc(C(F)(F)F)c4)CC3)cc12 [Example 28, 4-(5-fluoro-2-methoxyphenyl)-6-(1-{[2-(trifluoromethyl)pyridin-4-yl]methyl}-1,2,3,6-tetrahydropyridin-4-yl)-7H-pyrrolo[2,3-d]pyrimidine]
130 |  | 230 | CS(=O)(=O)N1CC=C(c2cc3c(-c4cc(NCc5ccc(C#N)cc5)ccc4F)ncnc3[nH]2)CC1 [Example 30, 4-{[(4-fluoro-3-{6-[1-(methylsulfonyl)-1,2,3,6-tetrahydropyridin-4-yl]-7H-pyrrolo[2,3-d]pyrimidin-4-yl}phenyl)amino]methyl}benzonitrile]
110 |  | 780 | COC(=O)c1ccc(CN2CC=C(c3cc4c(-c5cc(F)ccc5OC)ncnc4[nH]3)CC2)cc1 [Example 71, methyl 4-({4-[4-(5-fluoro-2-methoxyphenyl)-7H-pyrrolo[2,3-d]pyrimidin-6-yl]-3,6-dihydropyridin-1(2H)-yl}methyl)benzoate]
71 |  | 780 | CCOC(=O)NS(=O)(=O)N1CC=C(c2cc3c(-c4cc(F)ccc4OC)ncnc3[nH]2)CC1 [Example 82, ethyl ({4-[4-(5-fluoro-2-methoxyphenyl)-7H-pyrrolo[2,3-d]pyrimidin-6-yl]-3,6-dihydropyridin-1(2H)-yl}sulfonyl)carbamate]
62 |  | 1400 | COc1ccc(F)cc1-c1ncnc2[nH]c(C3=CCC(F)(F)CC3)cc12 [Example 61, 6-(4,4-difluorocyclohex-1-en-1-yl)-4-(5-fluoro-2-methoxyphenyl)-7H-pyrrolo[2,3-d]pyrimidine]
150 |  | 669 | COc1ccc(F)cc1-c1ncnc2[nH]c(C3=CCN(S(=O)(=O)C(F)(F)F)CC3)cc12 [Example 40, 4-(5-fluoro-2-methoxyphenyl)-6-{1-[(trifluoromethyl)sulfonyl]-1,2,3,6-tetrahydropyridin-4-yl}-7H-pyrrolo[2,3-d]pyrimidine]

SMILES | IC50 (CDK9/Cyclin T1) [nM] | EC50 (A431 cells) [nM] | EC50 (H929 cells) [nM]
COc1ccc(F)cc1-c1ncnc2[nH]c(C3=CCN(Cc4cccnc4)CC3)cc12 [Example 34, 4-(5-fluoro-2-methoxyphenyl)-6-[1-(pyridin-3-ylmethyl)-1,2,3,6-tetrahydropyridin-4-yl]-7H-pyrrolo[2,3-d]pyrimidine] | 170 |  | 630
COc1ccc(F)cc1-c1ncnc2[nH]c(C3=CCN([C@H]4CC[C@H](CC(=O)O)CC4)CC3)cc12 [Example 87, (trans-4-{4-[4-(5-fluoro-2-methoxyphenyl)-7H-pyrrolo[2,3-d]pyrimidin-6-yl]-3,6-dihydropyridin-1(2H)-yl}cyclohexyl)acetic acid] | 300 |  | 4100
COc1ccc(F)cc1-c1ncnc2[nH]c(C3=CCN(Cc4ccc(C#N)cc4)CC3)cc12 [Example 22, 4-({4-[4-(5-fluoro-2-methoxyphenyl)-7H-pyrrolo[2,3-d]pyrimidin-6-yl]-3,6-dihydropyridin-1(2H)-yl}methyl)benzonitrile] | 240 |  | 1100
COc1ccc(F)cc1-c1ncnc2[nH]c(C3=CCN(Cc4cc(F)cc(F)c4)CC3)cc12 [Example 36, 6-[1-(3,5-difluorobenzyl)-1,2,3,6-tetrahydropyridin-4-yl]-4-(5-fluoro-2-methoxyphenyl)-7H-pyrrolo[2,3-d]pyrimidine] | 170 |  | 1000
COc1ccc(F)cc1-c1ncnc2[nH]c(C3=CCN(Cc4ccccn4)CC3)cc12 [Example 26, 4-(5-fluoro-2-methoxyphenyl)-6-[1-(pyridin-2-ylmethyl)-1,2,3,6-tetrahydropyridin-4-yl]-7H-pyrrolo[2,3-d]pyrimidine] | 190 |  | 610
